target: T1, Met kinase domain (GST fusion protein) (Homo sapiens, UniProt P08581); assay: Met transphosphorylation assay (ELISA, poly(glu-tyr) substrate); format: biochemical; settings: Met IC50;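 also: Cell-free ELISA with plate-bound poly(Glu:Tyr 4:1) phosphorylated by GST-fused Met kinase domain plus ATP and Mn2+, phosphotyrosine detected by anti-phosphotyrosine antibody with HRP and ABTS read-out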
T1 construct: Purified GST fusion protein containing the Met kinase domain
T1 sequence (P08581 1078-1345 limits assumed): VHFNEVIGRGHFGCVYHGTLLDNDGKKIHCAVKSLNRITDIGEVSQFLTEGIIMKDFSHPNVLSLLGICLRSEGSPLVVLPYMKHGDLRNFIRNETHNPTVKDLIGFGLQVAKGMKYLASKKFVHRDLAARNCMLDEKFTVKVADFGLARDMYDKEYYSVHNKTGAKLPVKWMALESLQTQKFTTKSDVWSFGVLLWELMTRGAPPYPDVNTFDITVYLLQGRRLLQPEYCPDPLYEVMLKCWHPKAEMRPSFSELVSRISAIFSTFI
Protocol: General procedure is as follows: a compound is introduced to cells expressing the test kinase, either naturally or recombinantly, for a selected period of time after which, if the test kinase is a receptor, a ligand known to activate the receptor is added. The cells are lysed and the lysate is transferred to the wells of an ELISA plate previously coated with a specific antibody recognizing the substrate of the enzymatic phosphorylation reaction. Non-substrate components of the cell lysate are washed away and the amount of phosphorylation on the substrate is detected with an antibody specifically recognizing phosphotyrosine compared with control cells that were not contacted with a test compound.
Met Transphosphorylation Assay
This assay is used to measure phosphotyrosine levels on a poly(glutamic acid:tyrosine, 4:1) substrate as a means for identifying agonists/antagonists of met transphosphorylation of the substrate.
PBS, Gibco Catalog # 450-1300EB • 4. 50 mM HEPES • 5. […] Purified GST fusion protein containing the Met kinase domain, SUGEN, Inc. • 7. TBST Buffer. • 8. 10% aqueous (MilliQue H2O) DMSO. • 9. […] 2× Kinase Dilution Buffer: for 100 mL, mix 10 mL 1M HEPESat pH 7.5 with 0.4 mL 5% BSA/PBS, 0.2 mL 0.1 M sodium orthovanadate and 1 mL 5M sodium chloride in 88.4 mL dH2O. • 11. 4× ATP Reaction Mixture: for 10 mL, mix 0.4 mL 1 M manganese chloride and 0.02 mL 0.1 M ATP in 9.56 mL dH2O. • 12. 4× Negative Controls Mixture: for 10 mL, mix 0.4 mL 1 M manganese chloride in 9.6 mL dH2O. • 13. […] 500 mM EDTA. • 15. Antibody Dilution Buffer: for 100 mL, mix 10 mL 5% BSA/PBS, 0.5 mL 5% Carnation® Instant Milk in PBS and 0.1 mL 0.1 M sodium orthovanadate in 88.4 mL TBST. • 16. Rabbit polyclonal antophosphotyrosine antibody, SUGEN, Inc. • 17. Goat anti-rabbit horseradish peroxidase conjugated antibody, Biosource, Inc. • 18. ABTS Solution: for 1 L, mix 19.21 g citric acid, 35.49 g Na2HPO4 and 500 mg ABTS with sufficient dH2O to make 1 L. • 19. ABTS/H2O2: mix 15 mL ABST solution with 2μL H2O2 five minutes before use. • 20. 0.2 M HCl Procedure: • 1. Coat ELISA plates with 2 μg Poly(Glu-Tyr) in 100 μL PBS, hold-overnight at 4° C. • 2. Block plate with 150 μL of 5% BSA/PBS for 60 min. • 3. Wash plate twice with PBS then once with 50 mM Hepes buffer pH 7.4. • 4. Add 50 μl of the diluted kinase to all wells. (Purified kinase is diluted with Kinase Dilution Buffer. Final concentration should be 10 ng/well.) • 5. Add 25 μL of the test compound (in 4% DMSO) or DMSO alone (4% in dH2O) for controls to plate. • 6. Incubate the kinase/compound mixture for 15 minutes. • 7. Add 25 μL of 40 mM MnCl2 to the negative control wells. • 8. Add 25 μL ATP/MnCl2 mixture to the all other wells (except the negative controls). Incubate for 5 min. • 9. Add 25 μL 500 mM EDTA to stop reaction. • 10. Wash plate 3× with TBST. • 11. Add 100 μL rabbit polyclonal anti-Ptyr diluted 1:10,000 in Antibody Dilution Buffer to each well. Incubate, with shaking, at room temperature for one hour. • 12. Wash plate 3× with TBST. • 13. […] Add 100 μL per well and incubate at room temperature, with shaking, for one hour. • 14. Wash plate 1× with PBS. • 15. Add 100 μl of ABTS/H2O2 solution to each well. • 16. If necessary, stop the development reaction with the addition of 100 μl of 0.2M HCl per well. • 17.

| SMILES | IC50 [µM] |
| --- | --- |
| N#Cc1ccccc1COc1cc(-c2ccccc2)cnc1N [Example I-97, 2-(2-Amino-5-phenyl-pyridin-3-yloxymethyl)-benzonitrile] | 12.2 |

same assay, conditions: read-out: Met IC50

| SMILES | IC50 [µM] |
| --- | --- |
| Nc1ncc(-c2ccc3[nH]cc(CN4CCOCC4)c3c2)cc1OCc1c(F)ccc(F)c1Cl [Example I-74, 3-(2-Chloro-3,6-difluoro-benzyloxy)-5-(3-morpholin-4-ylmethyl-1H-indol-5-yl)-pyridin-2-ylamine] | 1.4 |
| Nc1ncc(-c2ccc3[nH]cc(CN4CCCC4)c3c2)cc1OCc1c(F)ccc(F)c1Cl [Example I-75, 3-(2-Chloro-3,6-difluoro-benzyloxy)-5-(3-pyrrolidin-1-ylmethyl-1H-indol-5-yl)-pyridin-2-ylamine] | 0.7 |
| CCOC(=O)c1cc2cc(-c3cnc(N)c(OCc4c(Cl)cccc4Cl)c3)ccc2[nH]1 [Example I-76, 5-[6-Amino-5-(2,6-dichloro-benzyloxy)-pyridin-3-yl]-1H-indole-2-carboxylic acid ethyl ester] | > 20 |
| Nc1ncc(-c2ccc3[nH]c(C(=O)O)cc3c2)cc1OCc1c(Cl)cccc1Cl [Example I-77, 5-[6-Amino-5-(2,6-dichloro-benzyloxy)-pyridin-3-yl]-1H-indole-2-carboxylic acid] | 1.62 |
| CN1CCN(C(=O)c2cc3cc(-c4cnc(N)c(OCc5c(Cl)cccc5Cl)c4)ccc3[nH]2)CC1 [Example I-78] | 0.18 |
| CN(C)[C@@H]1CCN(C(=O)c2cc3cc(-c4cnc(N)c(OCc5c(Cl)cccc5Cl)c4)ccc3[nH]2)C1 [Example I-79, {5-[6-Amino-5-(2,6-dichloro-benzyloxy)-pyridin-3-yl]-1H-indol-2-yl}-[(3R)-3-dimethylamino-pyrrolidin-1-yl]-methanone] | 0.18 |
| Nc1ncc(-c2ccc3[nH]c(C(=O)N4CCC[C@@H]4CN4CCCC4)cc3c2)cc1OCc1c(Cl)cccc1Cl [Example I-80, {5-[6-Amino-5-(2,6-dichloro-benzyloxy)-pyridin-3-yl]-1H-indol-2-yl}-[(2R)-2-pyrrolidin-1-ylmethyl-pyrrolidin-1-yl]-methanone] | 0.079 |
| Nc1ncc(-c2ccc3[nH]c(C(=O)NCCN4CCCC4)cc3c2)cc1OCc1c(Cl)cccc1Cl [Example I-81, 5-[6-Amino-5-(2,6-dichloro-benzyloxy)-pyridin-3-yl]-1H-indole-2-carboxylic acid (2-pyrrolidin-1-yl-ethyl)-amide] | 1.2 |
| Nc1ncc(-c2ccc3[nH]c(C(=O)NCCN4CCOCC4)cc3c2)cc1OCc1c(Cl)cccc1Cl [Example I-82, 5-[6-Amino-5-(2,6-dichloro-benzyloxy)-pyridin-3-yl]-1H-indole-2-carboxylic acid (2-morpholin-4-yl-ethyl)-amide] | 1.8 |
| CC(C)(C)OC(=O)N[C@H]1CCN(C(=O)c2cc3cc(-c4cnc(N)c(OCc5c(Cl)cccc5Cl)c4)ccc3[nH]2)C1 [Example I-83, (1-{5-[6-Amino-5-(2,6-dichloro-benzyloxy)-pyridin-3-yl]-1H-indole-2-carbonyl}-- (3S)-pyrrlidin-3-yl)-carbamic acid tert-butyl ester] | 5 |
| Nc1ncc(-c2ccc3[nH]c(C(=O)N4CC[C@H](N)C4)cc3c2)cc1OCc1c(Cl)cccc1Cl [Example I-84, {5-(6-Amino-5-(2,6-dichloro-benzyloxy)-pyridin-3-yl]-1H-indol-2-yl}-[(3S)-amino-pyrrolidin-1-yl]-methanone] | 0.14 |
| Nc1ncc(-c2ccc3[nH]c(C(=O)NCC(O)CN4CCCC4)cc3c2)cc1OCc1c(Cl)cccc1Cl (stereo not shown) [Example I-85, 5-[6-Amino-5-(2,6-dichloro-benzyloxy)-pyridin-3-yl]-1H-indole-2-carboxylic acid (2-hydroxy-3-pyrrolidin-1-yl-propyl)-amide] | 0.7 |
| Nc1ncc(-c2ccc(O)cc2)cc1OCc1ccccc1 [Example I-86, 4-(6-Amino-5-benzyloxy-pyridin-3-yl)-phenol] | 8.7 |
| Nc1ncc(-c2ccccc2)cc1OCc1ccc(F)cc1Cl [Example I-89, 3-(2-Chloro-4-fluoro-benzyloxy)-5-phenyl-pyridin-2-ylamine] | 17 |
| Nc1ncc(-c2ccccc2)cc1OCc1cc(C(F)(F)F)ccc1Cl [Example I-92, 3-(2-Chloro-5-trifluoromethyl-benzyloxy)-5-phenyl-pyridin-2-ylamine] | > 20 |
| Nc1ncc(-c2ccccc2)cc1OCc1cc(F)c(Cl)cc1Cl [Example I-93, 3-(2,4-Dichloro-5-fluoro-benzyloxy)-5-phenyl-pyridin-2-ylamine] | > 20 |
| Nc1ncc(-c2ccccc2)cc1OCc1cccc(C(F)(F)F)c1Cl [Example I-94, 3-(2-Chloro-3-trifluoromethyl-benzyloxy)-5-phenyl-pyridin-2-ylamine] | > 20 |
| Nc1ncc(-c2ccccc2)cc1OCc1c(F)ccc(F)c1Cl [Example I-95, 3-(2 Chloro-3,6-difluoro-benzyloxy)-5-phenyl-pyridin-2-ylamine] | 0.64 |
| Nc1ncc(-c2ccccc2)cc1OCc1ccc(Cl)c(Cl)c1 [Example I-96, 3-(3,4-Dichloro-benzyloxy)-5-phenyl-pyridin-2-ylamine] | 16.2 |

| SMILES | IC50 [µM] |
| --- | --- |
| Cc1ccc(F)c(COc2cc(-c3ccccc3)cnc2N)c1Cl [Example I-98, 3-(2-Chloro-6-fluoro-3-methyl-benzyloxy)-5-phenyl-pyridin-2-ylamine] | 7.6 |
| Nc1ncc(-c2ccccc2)cc1OCc1c(F)ccc(F)c1F [Example I-99, 5-Phenyl-3-(2,3,6-trifluoro-benzyloxy)-pyridin-2-ylamine] | 3.9 |
| Nc1ncc(-c2ccccc2)cc1OCc1c(F)cccc1F [Example I-100, 3-(2,6-Difluoro-benzyloxy)-5-phenyl-pyridin-2-ylamine] | 9.3 |
| Cc1ccc(F)c(COc2cc(-c3ccccc3)cnc2N)c1F [Example I-101, 3-(2,6-Difluoro-3-methyl-benzyloxy)-5-phenyl-pyridin-2-ylamine] | 12 |
| Nc1ncc(-c2ccccc2)cc1OCc1c(F)ccc(Cl)c1F [Example I-102, 3-(3-Chloro-2,6-difluoro-benzyloxy)-5-phenyl-pyridin-2-ylamine] | 9.6 |
| Nc1ncc(-c2ccccc2)cc1OCc1c(F)cccc1Cl [Example I-103, 3-(2-Chloro-8-fluoro-benzyloxy)-5-phenyl-pyridin-2-ylamine] | 7.91 |
| COc1ccc(COc2cc(-c3ccccc3)cnc2N)cc1F [Example I-104, 3-(3-Fluoro-4-methoxy-benzyloxy)-5-phenyl-pyridin-2-ylamine] | 15 |
| CS(=O)(=O)Nc1cccc(COc2cc(-c3ccccc3)cnc2N)c1 [Example I-105, N-[3-(2-Amino-5-phenyl-pyridin-3-yloxymethyl)-phenyl]-methanesulfonamide] | > 20 |
| Nc1ncc(-c2ccc(OCCN3CCOCC3)cc2)cc1OCc1cccc([N+](=O)[O-])c1 [Example I-106, 5-[4-(2-morpholin-4-yl-ethoxy)-phenyl]-3-(3-nitro-benzyloxy)-pyridin-2-ylamine] | 12.6 |
| Nc1ncc(-c2ccc(OCCN3CCOCC3)cc2)cc1OCc1cccc2ccccc12 [Example I-107, 5-[4-(2-Morpholin-4-yl-ethoxy)-phenyl]-3-(naphthalen-1-ylmethoxy)-pyridin-2-ylamine] | 7.7 |
| Nc1ncc(-c2ccc(OCCN3CCOCC3)cc2)cc1OCc1c(F)ccc(F)c1Cl [Example I-108, 3-(2-Chloro-3,6-difluoro-benzyloxy)-5-[4-(2-morpholin-4-yl-ethoxy)-phenyl]-pyridin-2-ylamine] | 0.21 |
| CC(C)c1ccc(NC(=O)C(Oc2cc(-c3ccc(OCCN4CCOCC4)cc3)cnc2N)c2ccccc2)cc1 (stereo not shown) [Example I-109, 2-{2-Amino-5-[4-(2-morpholin-4-yl-ethoxy)-phenyl]-pyridin-3-yloxy}-N-(4-isopropyl-phenyl)-2-phenyl-acetamide] | > 20 |
| Nc1ncc(-c2ccc(OCCN3CCOCC3)cc2)cc1OCc1csc2ccc(Cl)cc12 [Example I-110, 3-(5-Chloro-benzo[b]thiophen-3-ylmethoxy)-5-[4-(2-morpholin-4-yl-ethoxy)-phenyl]-pyridin-2-ylamine] | 2.4 |
| Nc1ncc(-c2ccc(C(=O)N3CCC[C@@H]3CN3CCCC3)cc2)cc1OCc1ccc(F)cc1C(F)(F)F [Example I-111, {4-[6-amino-5-(4-fluoro-2-trifluoromethyl-benzyloxy)-pyridin-3-yl]-phenyl)[(2R)-2-pyrrolidin-1-ylmethyl-pyrrolidin-1-yl]-methanone] | 1.51 |
| Nc1ncc(-c2ccc(C(=O)N3CCC[C@@H]3CN3CCCC3)cc2)cc1OCc1c(F)cccc1C(F)(F)F [Example I-112, {4-[6-Amino-5-(2-fluoro-2-trifluoromethyl-benzyloxy)-pyridin-3-yl]-phenyl}-[(2R)-2-pyrrolidin-1-ylmethyl-pyrrolidin-1-yl]-methanone] | 0.15 |
| Nc1ncc(-c2ccc(C(=O)N3CCC[C@@H]3CN3CCCC3)cc2)cc1OCc1cc(F)ccc1C(F)(F)F [Example I-113, {4-(6-Amino-5-(5-fluoro-2-trifluoromethyl-benzyloxy)pyridin-3-yl]-phenyl}-[(2R)-2-pyrrolidin-1-ylmethyl-pyrrolidin-1-yl]-methanone] | 1.27 |
| CC(Oc1cc(-c2ccc(C(=O)N3CCC[C@@H]3CN3CCCC3)cc2)cnc1N)c1ccccc1C(F)(F)F (stereo partly drawn) [Example I-114, (4-{6-Amino-5-[1-(2-trifluoromethyl-phenyl)-ethoxy]-pyridin-3-yl}-phenyl)-[(2R)-2-pyrrolidin-1-ylmethyl-pyrrolidin-1-yl]-methanone] | 0.33 |
| Nc1ncc(-c2ccc(C(=O)N3CCC[C@@H]3CN3CCCC3)cc2)cc1OCc1ccccc1Br [Example I-115, {4-[6-Amino-5-(2-bromo-benzyloxy)-pyridin-3-yl]-phenyl}-[(2R)-2-pyrrolidin-1-ylmethyl-pyrrolidin-1-yl]-methanone] | 1.75 |

same assay, conditions: read-out: Met inhibition (printed in the Met IC50 column)

| SMILES | inhibition at 20 µM [%] |
| --- | --- |
| Nc1ncc(-c2ccccc2)cc1OCc1ccccc1Cl [Example I-90, 3-(2-Chloro-benzyloxy)-5-phenyl-pyridin-2-ylamine] | 48 |
| Nc1ncc(-c2ccccc2)cc1OCc1cc(Cl)ccc1Cl [Example I-91, 3-(2,5-Dichloro-benzyloxy)-5-phenyl-pyridin-2-ylamine] | 48 |
